Results as given in US8912120B2, “Herbicidal compositions comprising 4-amino-3-chloro-5-fluoro-6-(4-chloro-2-fluoro-3-methoxyphenyl) pyridine-2-carboxylic acid or a derivative thereof and synthetic auxin herbicides” (Dow AgroSciences, LLC., priority 2012, dated 2014).
Where two headings read alike, the source gives them in different places.

Legend:
CYPIR = experiment: Example I: postemergence foliar-applied herbicidal mixtures, direct seeded rice, CYPIR; assay type: in vivo, Cyperus iria (rice flatsedge); details: 5.3 gae/ha
Method: (§2) The soil matrix was contained in plastic pots with a volume of 1 quart and a surface area of 83.6 square centimeters (cm^2). […] The plants were grown for 8-22 days in a greenhouse with an approximate 14 h photoperiod which was maintained at about 29° C. during the day and 26° C. during the night. Nutrients (Peters Excel® 15-5-15 5-Ca 2-Mg and iron chelate) were applied in the irrigation solution as needed and water was added on a regular basis. Supplemental lighting was provided with overhead metal halide 1000-Watt lamps as necessary. The plants were employed for testing when they reached the first through fourth true leaf stage.
(§3) Treatments consisted of the acid or esters of 4-amino-3-chloro-5-fluoro-6-(4-chloro-2-fluoro-3-methoxy-phenyl)pyridine-2-carboxylic acid (Compound A), each formulated as an SC (suspension concentrate), and various herbicidal components alone and in combination. Forms of compound A were applied on an acid equivalent basis.
(§4) For treatments comprised of formulated compounds, measured amounts of compounds were placed individually in 25 mL glass vials and diluted in a volume of 1.25% (v/v) Agri-Dex® crop oil concentrated to obtain 12× stock solutions. […] Application solutions were prepared by adding an appropriate amount of each stock solution (e.g., 1 mL) and diluted to the appropriate final concentrations with the addition of 10 mL of an aqueous mixture of 1.25% (v/v) crop oil concentrate so that the final spray solutions contained 1.25+/−0.05% (v/v) crop oil concentrate.
(§5) All stock solutions and applications solutions were visually inspected for compound compatibility prior to application. Spray solutions were applied to the plant material with an overhead Mandel track sprayer equipped with a 8002E nozzles calibrated to deliver 187 L/ha over an application area of 0.503 m^2 at a spray height of 18 to 20 inches (46 to 50 cm) above average plant canopy height. Control plants were sprayed in the same manner with the solvent blank.
(§6) The treated plants and control plants were placed in a greenhouse as described above and watered by sub-irrigation to prevent wash-off of the test compounds. After approximately 3 weeks, the condition of the test plants as compared with that of the untreated plants was determined visually and scored on a scale of 0 to 100 percent where 0 corresponds to no injury or growth inhibition and 100 corresponds to complete kill.
(§7) Colby's equation was used to determine the herbicidal effects expected from the mixtures (Colby, S. R. 1967. Calculation of the synergistic and antagonistic response of herbicide combinations. Weeds 15:20-22).
(§8) The following equation was used to calculate the expected activity of mixtures containing two active ingredients, A and B: Expected=A+B−(A×B/100)
(§9) A=observed efficacy of active ingredient A at the same concentration as used in the mixture.
(§10) B=observed efficacy of active ingredient B at the same concentration as used in the mixture.

ECHCG [1] = experiment: Example I: postemergence foliar-applied herbicidal mixtures, direct seeded rice, ECHCG
Method: as §2, §3, §4, §5, §6, §7, §8, §9, §10

SCPMA = experiment: Example II: in-water applied herbicidal mixtures, transplanted paddy rice, SCPMA; assay type: in vivo; details: for Visual Weed Control (%) - 20 DAA SCPMA Obs: in-water application
In short: (§1)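 Herbicides were injected by pipette, one after another, into the standing water of mud-filled pots. Rice had been moved in at the second or third leaf stage four days earlier. Every treatment carried identical acetone and crop oil concentrate levels, and untreated controls received only the solvent blank.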

ECHCG [2] = experiment: Example II: in-water applied herbicidal mixtures, transplanted paddy rice, ECHCG; assay type: in vivo, Echinochloa crus-galli (barnyardgrass); details: for Visual Weed Control (%) - 21 DAA ECHCG Obs / Visual Weed Control (%) - 22 DAA ECHCG Obs: in-water application
In short: as §1

DIGSA = experiment: Example I: postemergence foliar-applied herbicidal mixtures, direct seeded rice, DIGSA; details: 21.2 gae/ha
Method: as §2, §3, §4, §5, §6, §7, §8, §9, §10

CYPDI = experiment: Example I: postemergence foliar-applied herbicidal mixtures, direct seeded rice, CYPDI; assay type: in vivo, Cyperus difformis (smallflower umbrella sedge)
Method: as §2, §3, §4, §5, §6, §7
The following equation was used to calculate the expected activity of mixtures containing two active ingredients, A and B: Expected=A+B−(A×B/100) […]

CYPRO = experiment: Example II: in-water applied herbicidal mixtures, weed control in transplanted paddy rice (greenhouse), CYPRO; assay type: in vivo, Cyperus rotundus (purple nutsedge); details: for Visual Weed Control (%) - 20 DAA CYPRO Obs / Visual Weed Control (%) - 21 DAA CYPRO Obs / Visual Weed Control (%) - 22 DAA CYPRO Obs: in-water application
In short: as §1

LEFCH [3] = experiment: Example I: postemergence foliar-applied herbicidal mixtures, direct seeded rice, LEFCH; assay type: in vivo, Leptochloa chinensis (Chinese sprangletop)
Method: as §2, §3, §4, §5, §6, §7, §8, §9, §10

ECHOR = experiment: Example II: in-water applied herbicidal mixtures, transplanted paddy rice, ECHOR; assay type: in vivo, Echinochloa oryzoides (early watergrass)
In short: as §1

IPOHE = experiment: Example I: postemergence foliar-applied herbicidal mixtures, direct seeded rice, IPOHE; assay type: in vivo, Ipomoea hederacea (ivyleaf morningglory)
Method: as §2, §3, §4, §5, §6, §7, §8, §9, §10

ECHCO = experiment: Example I: postemergence foliar-applied herbicidal mixtures, direct seeded rice, ECHCO
LEFCH [4] = experiment: Example II: in-water applied herbicidal mixtures, transplanted paddy rice, LEFCH; assay type: in vivo, Leptochloa chinensis (Chinese sprangletop)
In short: as §1

[5] = 8.75 gae/ha, in-water application
[6] = 17.5 gae/ha, in-water application
[7] = 35 gae/ha, in-water application
[8] = 42.4 gae/ha, in-water application

COc1c(Cl)ccc(-c2nc(C(=O)O)c(Cl)c(N)c2F)c1F [Compound A Acid, 4-amino-3-chloro-6-(4-chloro-2-fluoro-3-methoxyphenyl)-5-fluoropyridine-2-carboxylic acid]
10%: Visual Weed Control (%) - 21 DAA DIGSA Obs (DIGSA) | Visual Weed Control (%) Obs (CYPRO; 20 DAA, 10.6 gae/ha) | Visual Weed Control (%) - 20 DAA LEFCH Obs (LEFCH [3]; 5.3 gae/ha) | Visual Weed Control (%) - 20 DAA LEFCH Obs (LEFCH [3]; 17.5 gae/ha) | Visual Weed Control (%) - 20 DAA ECHOR Obs (ECHOR; [5]) | Visual Weed Control (%) - 21 DAA ECHOR Obs (ECHOR; [5]) | Visual Weed Control (%) - 20 DAA IPOHE Obs (IPOHE; 4.38 gae/ha) | Visual Weed Control (%) - 19 DAA LEFCH Obs (LEFCH [4]; [8])
30%: Visual Weed Control (%) Obs (SCPMA; 22 DAA, 64 gae/ha) | Visual Weed Control (%) Obs (ECHCG [2]; 22 DAA, 42.4 gae/ha) | Visual Weed Control (%) - 21 DAA CYPRO Obs (CYPRO; 17.5 gae/ha) | pest or weed control at 21.2 g/ha (ECHOR; Echinochloa oryzoides, 480 h, 20 DAA, 21.2 gae/ha, read-out: Visual Weed Control (%) Obs) | Visual Weed Control (%) - 20 DAA IPOHE Obs (IPOHE; 17.5 gae/ha) | Visual Weed Control (%) - 21 DAA LEFCH Obs (LEFCH [4]; [7])
70%: Visual Weed Control (%) Obs (ECHCG [2]; 25 DAA, 35 gae/ha) | Visual Weed Control (%) - 20 DAA CYPRO Obs (CYPRO; 17.5 gae/ha) | Visual Weed Control (%) - 21 DAA ECHCO Obs (ECHCO; 4.38 gae/ha)
60%: Visual Weed Control (%) Obs (LEFCH [4]; 22 DAA, 42.4 gae/ha)
75%: Visual Weed Control (%) - 21 DAA ECHCO Obs (ECHCO; 8.75 gae/ha)
15%: Visual Weed Control (%) - 21 DAA ECHCG Obs (ECHCG [1]; 4.38 gae/ha) | Visual Weed Control (%) - 21 DAA ECHOR Obs (ECHOR; [6]) | Visual Weed Control (%) - 19 DAA ECHOR Obs (ECHOR; [8]) | pest or weed control at 42.4 g/ha (ECHOR; Echinochloa oryzoides, 456 h, 19 DAA, 42.4 gae/ha, read-out: Visual Weed Control (%) Obs) | pest or weed control at 42.4 g/ha (ECHOR; Echinochloa oryzoides, 504 h, 21 DAA, 42.4 gae/ha, read-out: Visual Weed Control (%) Obs) | Visual Weed Control (%) - 20 DAA IPOHE Obs (IPOHE; 8.75 gae/ha)
80%: Visual Weed Control (%) - 19 DAA ECHCG Obs (ECHCG [1]; 19.4 gae/ha)
33%: pest or weed control at 84.8 g/ha (ECHOR; Echinochloa oryzoides, 480 h, 20 DAA, 84.8 gae/ha, read-out: Visual Weed Control (%) Obs)
0%: Visual Weed Control (%) - 20 DAA SCPMA Obs (SCPMA; 8.75 gae/ha) | Visual Weed Control (%) - 20 DAA SCPMA Obs (SCPMA; 17.5 gae/ha) | Visual Weed Control (%) Obs (SCPMA; 20 DAA, 42.4 gae/ha) | Visual Weed Control (%) Obs (SCPMA; 20 DAA, 84.8 gae/ha) | Visual Weed Control (%) Obs (SCPMA; 21 DAA, 42.4 gae/ha) | Visual Weed Control (%) Obs (SCPMA; 22 DAA, 8.75 gae/ha) | Visual Weed Control (%) Obs (SCPMA; 22 DAA, 16 gae/ha) | Visual Weed Control (%) Obs (SCPMA; 22 DAA, 17.5 gae/ha) | Visual Weed Control (%) Obs (SCPMA; 22 DAA, 32 gae/ha) | Visual Weed Control (%) Obs (SCPMA; 22 DAA, 35 gae/ha) | Visual Weed Control (%) - 20 DAA SCPMA Obs (SCPMA; 35 gae/ha) | Visual Weed Control (%) - 21 DAA ECHCG Obs (ECHCG [2]; 8.75 gae/ha) | Visual Weed Control (%) - 22 DAA ECHCG Obs (ECHCG [2]; 8.75 gae/ha) | Visual Weed Control (%) - 21 DAA ECHCG Obs (ECHCG [2]; 17.5 gae/ha) | Visual Weed Control (%) Obs (ECHCG [2]; 21 DAA, 10.6 gae/ha) | Visual Weed Control (%) Obs (ECHCG [2]; 22 DAA, 8.75 gae/ha) | Visual Weed Control (%) Obs (ECHCG [2]; 25 DAA, 8.75 gae/ha) | Visual Weed Control (%) Obs (ECHCG [2]; 25 DAA, 17.5 gae/ha) | Visual Weed Control (%) - 20 DAA CYPRO Obs (CYPRO; 8.75 gae/ha) | Visual Weed Control (%) - 21 DAA CYPRO Obs (CYPRO; 8.75 gae/ha) | Visual Weed Control (%) - 22 DAA CYPRO Obs (CYPRO; 8.75 gae/ha) | Visual Weed Control (%) Obs (CYPRO; 22 DAA, 8.75 gae/ha) | Visual Weed Control (%) Obs (CYPRO; 22 DAA, 10.6 gae/ha) | Visual Weed Control (%) - 20 DAA LEFCH Obs (LEFCH [3]; 4.38 gae/ha) | Visual Weed Control (%) - 20 DAA LEFCH Obs (LEFCH [3]; 8.75 gae/ha) | Visual Weed Control (%) - 22 DAA ECHOR Obs (ECHOR; [5]) | Visual Weed Control (%) - 25 DAA ECHOR Obs (ECHOR; [5]) | Visual Weed Control (%) - 22 DAA ECHOR Obs (ECHOR; [6]) | Visual Weed Control (%) - 25 DAA ECHOR Obs (ECHOR; [6]) | pest or weed control at 8.75 g/ha (ECHOR; Echinochloa oryzoides, 504 h, 21 DAA, 8.75 gae/ha, read-out: Visual Weed Control (%) Obs) | pest or weed control at 17.5 g/ha (ECHOR; Echinochloa oryzoides, 504 h, 21 DAA, 17.5 gae/ha, read-out: Visual Weed Control (%) Obs) | pest or weed control at 8.75 g/ha (ECHOR; Echinochloa oryzoides, 528 h, 22 DAA, 8.75 gae/ha, read-out: Visual Weed Control (%) Obs) | pest or weed control at 17.5 g/ha (ECHOR; Echinochloa oryzoides, 528 h, 22 DAA, 17.5 gae/ha, read-out: Visual Weed Control (%) Obs) | pest or weed control at 8.75 g/ha (ECHOR; Echinochloa oryzoides, 600 h, 25 DAA, 8.75 gae/ha, read-out: Visual Weed Control (%) Obs) | pest or weed control at 17.5 g/ha (ECHOR; Echinochloa oryzoides, 600 h, 25 DAA, 17.5 gae/ha, read-out: Visual Weed Control (%) Obs) | Visual Weed Control (%) - 21 DAA LEFCH Obs (LEFCH [4]; [5]) | Visual Weed Control (%) - 21 DAA LEFCH Obs (LEFCH [4]; [6])
65%: Visual Weed Control (%) - 20 DAA CYPIR Obs (CYPIR)
85%: Visual Weed Control (%) - 21 DAA CYPDI Obs (CYPDI; 8.75 gae/ha) | Visual Weed Control (%) - 21 DAA CYPRO Obs (CYPRO; 35 gae/ha) | Visual Weed Control (%) Obs (LEFCH [4]; 25 DAA, 35 gae/ha) | Visual Weed Control (%) - 25 DAA LEFCH Obs (LEFCH [4]; [7])
20%: Visual Weed Control (%) - 22 DAA ECHCG Obs (ECHCG [2]; 17.5 gae/ha) | Visual Weed Control (%) Obs (ECHCG [2]; 20 DAA, 10.6 gae/ha) | Visual Weed Control (%) Obs (ECHCG [2]; 20 DAA, 21.2 gae/ha) | Visual Weed Control (%) Obs (ECHCG [2]; 22 DAA, 17.5 gae/ha) | Visual Weed Control (%) - 21 DAA ECHCG Obs (ECHCG [2]; 35 gae/ha) | Visual Weed Control (%) - 22 DAA CYPRO Obs (CYPRO; 17.5 gae/ha) | Visual Weed Control (%) Obs (CYPRO; 20 DAA, 21.2 gae/ha) | Visual Weed Control (%) Obs (CYPRO; 22 DAA, 17.5 gae/ha) | Visual Weed Control (%) - 21 DAA ECHOR Obs (ECHOR; [7]) | Visual Weed Control (%) - 22 DAA ECHOR Obs (ECHOR; [7]) | pest or weed control at 35 g/ha (ECHOR; Echinochloa oryzoides, 504 h, 21 DAA, 35 gae/ha, read-out: Visual Weed Control (%) Obs) | pest or weed control at 35 g/ha (ECHOR; Echinochloa oryzoides, 528 h, 22 DAA, 35 gae/ha, read-out: Visual Weed Control (%) Obs) | Visual Weed Control (%) Obs (LEFCH [4]; 22 DAA, 10.6 gae/ha)
5%: Visual Weed Control (%) - 19 DAA LEFCH Obs (LEFCH [3]; 19.4 gae/ha)
40%: Visual Weed Control (%) Obs (CYPRO; 22 DAA, 21.2 gae/ha) | Visual Weed Control (%) - 25 DAA ECHOR Obs (ECHOR; [7]) | pest or weed control at 35 g/ha (ECHOR; Echinochloa oryzoides, 600 h, 25 DAA, 35 gae/ha, read-out: Visual Weed Control (%) Obs) | Visual Weed Control (%) Obs (LEFCH [4]; 22 DAA, 21.2 gae/ha)
50%: Visual Weed Control (%) - 21 DAA ECHCG Obs (ECHCG [1]; 8.75 gae/ha) | Visual Weed Control (%) Obs (ECHCG [2]; 20 DAA, 42.4 gae/ha) | Visual Weed Control (%) - 21 DAA CYPDI Obs (CYPDI; 4.38 gae/ha) | Visual Weed Control (%) Obs (CYPRO; 22 DAA, 35 gae/ha) | Visual Weed Control (%) - 22 DAA CYPRO Obs (CYPRO; 35 gae/ha) | Visual Weed Control (%) - 25 DAA LEFCH Obs (LEFCH [4]; [5]) | Visual Weed Control (%) - 25 DAA LEFCH Obs (LEFCH [4]; [6]) | Visual Weed Control (%) Obs (LEFCH [4]; 25 DAA, 8.75 gae/ha) | Visual Weed Control (%) Obs (LEFCH [4]; 25 DAA, 17.5 gae/ha)
25%: Visual Weed Control (%) Obs (ECHCG [2]; 22 DAA, 21.2 gae/ha) | Visual Weed Control (%) Obs (ECHCG [2]; 22 DAA, 35 gae/ha) | Visual Weed Control (%) - 22 DAA ECHCG Obs (ECHCG [2]; 35 gae/ha) | Visual Weed Control (%) - 20 DAA ECHOR Obs (ECHOR; [6]) | Visual Weed Control (%) - 20 DAA ECHOR Obs (ECHOR; [7])
